Literature values as cited in US20060067952A1, “Low oil emulsion compositions for delivering taxoids and other insoluble drugs” (SD Pharmaceuticals, Inc., priority 2004, published 2006).
Like-named read-outs stand apart in the source and are kept apart here.

Conditions: 25° C.

CC(=O)Oc1ccccc1C(=O)O [aspirin]
Volume of solvent required to dissolve 1 gram of the drug (H2O): 300 mL
Volume of solvent required to dissolve 1 gram of the drug (ethanol): 5 mL
